# Measurements: paper PMC10023787, “Trio-pharmacophore DNA-encoded chemical library for simultaneous selection of fragments and linkers” (Nature Communications, 2023)
# Read-outs that look alike come from different tables or passages of the source.
# Key:
# [1] = molecular target: T1, MMP-2 (Homo sapiens, UniProt P08253); assay: MMP-2 inhibition assay (fluorogenic peptide substrate); type: biochemical
# T1 construct: purchased Sino Biological 10082-HNAH
# T1 sequence (P08253 110-660): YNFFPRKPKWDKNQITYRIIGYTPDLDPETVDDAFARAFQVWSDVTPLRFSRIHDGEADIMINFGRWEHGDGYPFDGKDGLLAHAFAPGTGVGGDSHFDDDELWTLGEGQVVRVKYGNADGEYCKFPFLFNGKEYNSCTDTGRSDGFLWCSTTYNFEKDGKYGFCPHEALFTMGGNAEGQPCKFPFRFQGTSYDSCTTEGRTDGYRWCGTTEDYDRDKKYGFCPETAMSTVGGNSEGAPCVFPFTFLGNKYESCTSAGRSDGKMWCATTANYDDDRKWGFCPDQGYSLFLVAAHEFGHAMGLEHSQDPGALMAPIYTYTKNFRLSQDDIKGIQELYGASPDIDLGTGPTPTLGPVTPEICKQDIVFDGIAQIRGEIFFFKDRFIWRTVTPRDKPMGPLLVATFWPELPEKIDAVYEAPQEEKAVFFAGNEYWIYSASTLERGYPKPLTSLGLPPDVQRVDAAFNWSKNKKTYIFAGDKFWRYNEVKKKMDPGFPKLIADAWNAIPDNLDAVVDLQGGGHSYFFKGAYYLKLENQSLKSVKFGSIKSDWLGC
# Outline: (§1)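 Human proMMP-2 and proMMP-9 were activated with 1 mM APMA for 2 h at 37 °C, then used at 6.5 nM (MMP-2) or 10 nM (MMP-9) final in Tris/NaCl/CaCl2/Brij 35 buffer, pH 7.5. After 30 min preincubation with compound at RT, 25 μM FRET peptide substrate was added and fluorescence (ex 280/em 360 nm) followed for 30 min. IC50 came from logistic fits of Vmax.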
# [2] = molecular target: T2, MMP-9 (Homo sapiens, UniProt P14780); assay: MMP-9 inhibition assay (fluorogenic peptide substrate); type: biochemical; parameters: remaining enzyme activity (% of control): scale not given here
# T2 construct: purchased Sino Biological 10327-HNAH
# T2 sequence (P14780 107-707 limits assumed): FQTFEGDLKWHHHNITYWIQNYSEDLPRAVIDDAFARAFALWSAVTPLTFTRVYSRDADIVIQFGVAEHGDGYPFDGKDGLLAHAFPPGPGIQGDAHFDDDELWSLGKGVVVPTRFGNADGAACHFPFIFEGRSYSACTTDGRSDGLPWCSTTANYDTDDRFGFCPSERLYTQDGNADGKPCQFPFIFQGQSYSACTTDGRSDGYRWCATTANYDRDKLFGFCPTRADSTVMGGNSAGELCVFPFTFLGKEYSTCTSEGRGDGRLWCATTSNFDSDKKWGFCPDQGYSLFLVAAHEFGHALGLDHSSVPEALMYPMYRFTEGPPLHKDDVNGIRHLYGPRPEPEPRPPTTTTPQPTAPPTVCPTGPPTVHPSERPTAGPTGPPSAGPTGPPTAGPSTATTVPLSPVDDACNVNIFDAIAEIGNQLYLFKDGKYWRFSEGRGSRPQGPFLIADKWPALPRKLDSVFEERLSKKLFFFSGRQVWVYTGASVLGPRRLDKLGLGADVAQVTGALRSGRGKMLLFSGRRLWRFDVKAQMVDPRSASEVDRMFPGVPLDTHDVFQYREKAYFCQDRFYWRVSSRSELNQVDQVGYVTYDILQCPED
# Outline: as §1
# [3] = Figure 5d; fragment combination joined by linker; n.d: not detected; read-out: MMP2 IC50
# [4] = Figure 5d; fragment combination joined by linker; n.d: not detected; read-out: MMP9 IC50
# [5] = mean ± SE; n.d: not detected; Fig. 5e prints no unit, µM; read-out: IC50
# [6] = mean ± SE; n.d: not detected; Fig. 5d unit inferred, µM; read-out: IC50
structure (smiles),measurement,setting,value
Cc1cc(=O)[nH]c(-n2nc(C)c(CCC(=O)NCCOCCOCCNC(=O)CCC(=O)NCc3c[nH]nn3)c2C)n1 [693_787 10],IC50,[1]; [3],171 µM
same,IC50,[2]; [4],230 µM
Cn1c(O)nc2cc(C(=O)NCCOCCOCCNC(=O)Cn3cnc4c(oc5ccccc54)c3=O)cnc21 [182+826 Linker 10],remaining activity (%),"[1]; MMP-2, concentration 0.12 µM",104.96
same,remaining activity (%),"[1]; MMP-2, concentration 0.49 µM",102.80
same,remaining activity (%),"[1]; MMP-2, concentration 1.95 µM",96.45
same,remaining activity (%),"[1]; MMP-2, concentration 7.81 µM",96.46
same,remaining activity (%),"[1]; MMP-2, concentration 31.25 µM",89.20
same,remaining activity (%),"[1]; MMP-2, concentration 125.00 µM",71.67
same,remaining activity (%),"[1]; MMP-2, concentration 500.00 µM",58.28
same,remaining enzyme activity (% of control),"[2]; MMP-9, concentration 0.12 µM",94.26
same,remaining enzyme activity (% of control),"[2]; MMP-9, concentration 0.49 µM",94.53
same,remaining enzyme activity (% of control),"[2]; MMP-9, concentration 1.95 µM",79.71
same,remaining enzyme activity (% of control),"[2]; MMP-9, concentration 7.81 µM",87.21
same,remaining enzyme activity (% of control),"[2]; MMP-9, concentration 31.25 µM",75.62
same,remaining enzyme activity (% of control),"[2]; MMP-9, concentration 125.00 µM",66.17
same,remaining enzyme activity (% of control),"[2]; MMP-9, concentration 500.00 µM",43.49
same,IC50,[2]; [5],283 ± 84.3 µM
O=C(/C=C/CCCCNC(=O)c1cncc(O)c1)CC(=O)NCC12CC3CC(CC(C3)C1)C2 [66_828 12],IC50,[1]; [3],488 µM
same,IC50,[2]; [4],77.4 µM
Cc1cc(=O)[nH]c(-n2nc(C)c(CCC(=O)NCCNC(=O)c3cncc(O)c3)c2C)n1 [693+828 Linker 1],remaining activity (%),[1]; MMP-2; concentration 0.0153 µM,92.49
same,remaining activity (%),[1]; MMP-2; concentration 0.08 µM,86.73
same,remaining activity (%),[1]; MMP-2; concentration 0.38 µM,90.73
same,remaining activity (%),[1]; MMP-2; concentration 1.91 µM,83.36
same,remaining activity (%),[1]; MMP-2; concentration 9.54 µM,76.57
same,remaining activity (%),[1]; MMP-2; concentration 47.72 µM,66.74
same,remaining activity (%),[1]; MMP-2; concentration 238.60 µM,28.54
same,remaining activity (%),[1]; MMP-2; concentration 1193.00 µM,3.05
same,IC50,[1]; [6],110 ± 13.3 µM
same,remaining enzyme activity (% of control),[2]; MMP-9; concentration 0.08 µM,98.15
same,remaining enzyme activity (% of control),[2]; MMP-9; concentration 0.38 µM,101.08
same,remaining enzyme activity (% of control),[2]; MMP-9; concentration 1.91 µM,93.24
same,remaining enzyme activity (% of control),[2]; MMP-9; concentration 9.54 µM,99.31
same,remaining enzyme activity (% of control),[2]; MMP-9; concentration 47.72 µM,78.04
same,remaining enzyme activity (% of control),[2]; MMP-9; concentration 238.60 µM,51.23
same,remaining enzyme activity (% of control),[2]; MMP-9; concentration 1193.00 µM,4.04
same,IC50,[2]; [5],232 ± 35.2 µM
O=C(CNC(=O)NC12CC3CC(CC(C3)C1)C2)NCCSCC(=O)NCc1c[nH]nn1 [66+787 Linker 24],remaining activity (%),[1]; MMP-2; concentration 0.0156 µM,107.17
same,remaining activity (%),[1]; MMP-2; concentration 0.08 µM,100.74
same,remaining activity (%),[1]; MMP-2; concentration 0.39 µM,89.54
same,remaining activity (%),[1]; MMP-2; concentration 1.95 µM,101.35
same,remaining activity (%),[1]; MMP-2; concentration 9.75 µM,92.40
same,remaining activity (%),[1]; MMP-2; concentration 48.76 µM,87.86
same,remaining activity (%),[1]; MMP-2; concentration 243.80 µM,72.74
same,remaining activity (%),[1]; MMP-2; concentration 1219.00 µM,41.09
same,IC50,[1]; [6],861 ± 97.2 µM
same,remaining enzyme activity (% of control),[2]; MMP-9; concentration 0.08 µM,99.22
same,remaining enzyme activity (% of control),[2]; MMP-9; concentration 0.39 µM,101.28
same,remaining enzyme activity (% of control),[2]; MMP-9; concentration 1.95 µM,105.60
same,remaining enzyme activity (% of control),[2]; MMP-9; concentration 9.75 µM,109.06
same,remaining enzyme activity (% of control),[2]; MMP-9; concentration 48.76 µM,90.00
same,remaining enzyme activity (% of control),[2]; MMP-9; concentration 243.80 µM,81.70
same,remaining enzyme activity (% of control),[2]; MMP-9; concentration 1219.00 µM,47.95
